The values below are quoted from earlier work in publication PMC12385607 (ACS medicinal chemistry letters, 2025).

For series [1] the following is noted: 30 min post-oral administration.
For series [2] the following is noted: orally available 2-PMPA prodrugs.

Regarding `O=C(O)CCC(CP(=O)(O)O)C(=O)O` (stereo not drawn) [2-PMPA, 2-(phosphonomethyl)pentanedioic acid], the “Clearance from plasma after intravenous administration (in words)” value was “quickly cleared from the plasma”. Besides, in series [1], the “Plasma concentration of 2-PMPA after oral administration of 2-PMPA itself” value is ~ 250 nM.
In the case of `Cc1oc(=O)oc1COC(=O)CCC(CP(=O)(OCc1oc(=O)oc1C)OCc1oc(=O)oc1C)C(=O)OCc1oc(=O)oc1C` (stereo not drawn) [tetra-ODOL-2-PMPA], the “Brain distribution of 2-PMPA (in words)” value in series [2] is given as “limited brain distribution”.
